Settings: Liquid, DSC

CN1C(=O)CC[C@H]1c1cccnc1 [(S)-cotinine]
Settings | vapor or sublimation pressure [kPa]
537.7 K | 14.95
548.4 K | 19.9
564.2 K | 29.82
585.6 K | 49.74
601.3 K | 69.56
607.4 K | 79.5
619.2 K | 101.32
655.4 K | 197.04
669.7 K | 247.52

CCCCCCCCCCCCCCCC [hexadecane]
Settings | vapor or sublimation pressure [kPa]
486.1 K | 14.78
529.6 K | 49.76
549.3 K | 79.6
560.5 K | 101.35
560.9 K | 102.04

CN1CCC[C@H]1c1cccnc1 [(-)-3-(N-methylpyrrolidino)pyridine]
Settings | vapor or sublimation pressure [kPa]
447.7 K | 14.96
457.2 K | 19.93
471.1 K | 29.87
490.6 K | 49.83
510.1 K | 79.61
520.4 K | 99.84
566.4 K | 247.84
594.8 K | 397.81
609.3 K | 500.02
617.8 K | 568.97

O [water]
Settings | vapor or sublimation pressure [kPa]
354.7 K | 49.7
366.85 K | 79.6
373.47 K | 100.66
406.69 K | 298.53
425.39 K | 498.99

Cc1ccccc1 [toluene]
Settings | vapor or sublimation pressure [kPa]
327.6 K | 14.9
360.7 K | 49.6
375.8 K | 79.3
383.5 K | 100.66
384.3 K | 102.73
451 K | 498.3
451.5 K | 499.9
490.4 K | 1009.3

c1cncc(C2CCCCN2)c1 (configuration not stated) [(.+-.)-anabasine]
Settings | vapor or sublimation pressure [kPa]
478 K | 14.95
488 K | 19.9
502.9 K | 29.84
523 K | 49.73
543.5 K | 79.59
555.1 K | 99.57
602.5 K | 248.35
631.3 K | 398.33
640.7 K | 468.91
644.3 K | 498.63
